From PubChem BioAssay (NCI)
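How tested: cells in 96-well plates exposed to compound for 48 hours at five concentrations. Abbreviation: GI50, concentration required for 50% inhibition of growth. TGI: total growth inhibition.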

How the values were obtained:
Assay in all cases: inhibition of tumour cell growth, NCI panel, 48 h
DMS 114 small cell lung = test system: DMS 114 small cell lung
XF 498 CNS = test system: XF 498 CNS
LXFL 529 NSCLC = test system: LXFL 529 NSCLC
SNB-78 CNS = test system: SNB-78 CNS
DLD-1 colon = test system: DLD-1 colon
BT-549 breast = test system: BT-549 breast
NCI/ADR-RES ovarian = test system: NCI/ADR-RES ovarian
HS 578T breast = test system: HS 578T breast
DU-145 prostate = test system: DU-145 prostate
T-47D breast = test system: T-47D breast

| SMILES | TGI (DMS 114 small cell lung) | TGI (XF 498 CNS) | TGI (LXFL 529 NSCLC) | TGI (SNB-78 CNS) | TGI (DLD-1 colon) | further results |
| --- | --- | --- | --- | --- | --- | --- |
| CC(=O)Oc1ccccc1C(=O)C1c2cccc(O)c2C(=O)c2c(O)cccc21 | 1.28 µM | 0.506 µM | 4.03 µM | > 24.8 µM | 12.2 µM |  |
| COC(=O)C(Cc1nc2ccc(Cl)cc2[nH]c1=O)C(=O)C(=O)Nc1ccccc1[N+](=O)[O-] (stereo not given) | > 100 µM | > 100 µM | > 100 µM | > 100 µM | > 100 µM |  |
| O=C(Cc1ccccc1)N/N=C(\C1=Nc2ccc([N+](=O)[O-])cc2NC1O)C(O)c1ccc([N+](=O)[O-])cc1 (stereo not given) |  | > 100 µM | > 100 µM | > 100 µM | > 100 µM |  |
| CCOc1ccc(NC(=O)CC2SC(N)=NC2=O)cc1 (stereo not given) | > 100 µM | > 100 µM | > 100 µM | > 100 µM | > 100 µM |  |
| C/C=C(/CCCCNCCCC)[Si](C)(C)C | 33.5 µM | 23.7 µM | 29.3 µM | 29.7 µM | 29.8 µM |  |
| N/N=C(\Cc1ccccc1)NN=C(N)N |  | > 100 µM | > 100 µM | > 100 µM | > 100 µM |  |
| CN(C)c1ccc(N=Nc2c([O-])ccc3ccccc23)cc1.[C-]#[O+].[C-]#[O+].[Ir] | 36 µM | 33.3 µM | 31.2 µM |  | 47.8 µM | GI50 (BT-549 breast): 19.6 µM; TGI (BT-549 breast): 56.7 µM; GI50 (DMS 114 small cell lung): 20.6 µM; GI50 (XF 498 CNS): 17 µM; GI50 (LXFL 529 NSCLC): 17.2 µM; GI50 (NCI/ADR-RES ovarian): 19.3 µM; TGI (NCI/ADR-RES ovarian): 57.7 µM; GI50 (HS 578T breast): 19.3 µM; TGI (HS 578T breast): 70.9 µM; GI50 (DLD-1 colon): 22.5 µM |
| CN(C)C(=O)C1CCC(=C2C(=O)OC(C)(C)OC2=O)N1C (stereo not given) | > 100 µM | > 100 µM | > 100 µM | > 100 µM | > 100 µM |  |
| C=C(N=[N+]=[N-])c1cn(C2CC(O)C(CO)O2)c(=O)[nH]c1=O (stereo not given) | > 100 µM | > 100 µM | > 100 µM | > 100 µM | > 100 µM |  |
| O=c1cccccc1NCCCCCCCCCNc1cccccc1=O | 19.1 µM | 20 µM | 24.4 µM | 82.4 µM | > 100 µM |  |
| O=C(Nc1cc(Cl)c(Cl)cc1Cl)C(=O)C(C(=O)c1ccc(Cl)c(Cl)c1)C1OC(=O)c2ccccc21 (stereo not given) | 39.5 µM |  | 22.9 µM | > 100 µM | 23.4 µM |  |
| CCCCCCCCCCCCC(=O)[O-].CCCCCCCCCCCCC(=O)[O-].CCCCCCCCCCCCC(=O)[O-].CCCCCCCCCCCCC(=O)[O-].[Mo+2].[Mo+2] | 26 µM | 23.4 µM | 22.8 µM | 67.3 µM | 23.3 µM | GI50 (DMS 114 small cell lung): 6.62 µM; GI50 (XF 498 CNS): 11.3 µM; GI50 (LXFL 529 NSCLC): 10.7 µM; GI50 (SNB-78 CNS): 19.9 µM; GI50 (DLD-1 colon): 7.9 µM |
| CC(=O)NC(CCCN(Cc1ccccc1)C(=O)N(CCCl)N=O)C(=O)NCc1ccccc1 (stereo not given) | > 100 µM | > 60.4 µM | > 100 µM | > 100 µM | > 100 µM |  |
| O=C(O)c1c[nH]cc1C(=O)O | > 100 µM | > 100 µM | > 100 µM | > 100 µM | > 100 µM |  |
| Cc1c2ccncc2c(C)c2c1[nH]c1ccc(OC(C)(C)C)cc12 | 4.29 µM | 3.75 µM | 5.5 µM | 6.53 µM | 10.4 µM |  |
| COc1cc(Oc2c(O)c(C)c(OC)c(C(C)=O)c2O)c(C(C)=O)c(O)c1C | > 100 µM | > 100 µM | > 100 µM | > 100 µM | > 100 µM |  |
| CC1=NN(C(=O)c2ccc(Cl)cc2)C(=O)/C1=C/c1cccc([N+](=O)[O-])c1 | > 100 µM | > 100 µM | > 100 µM | > 100 µM | > 100 µM |  |

| SMILES | TGI (DMS 114 small cell lung) | TGI (XF 498 CNS) | TGI (LXFL 529 NSCLC) | TGI (SNB-78 CNS) | TGI (DLD-1 colon) | further results |
| --- | --- | --- | --- | --- | --- | --- |
| CC(C)=CC(=O)CC(=O)C(=O)Nc1ccc(Cl)c(Cl)c1 | > 100 µM |  | > 100 µM | > 100 µM | > 100 µM |  |
| O=C1c2ccccc2C(=O)C1C(c1ccc([N+](=O)[O-])cc1)C1C(=O)c2ccccc2C1=O |  | > 100 µM | > 100 µM | > 100 µM | > 100 µM |  |
| FC(F)(F)c1ccc2nc(Nc3ccc(Cl)c(Cl)c3)c(-c3ccccc3)nc2c1 |  | > 100 µM | > 100 µM | > 100 µM |  |  |
| CCOC(=O)/C(C#N)=C1\N[C@H](C(=O)OCC)CO1 |  | 78.1 µM | > 100 µM | > 100 µM | > 100 µM |  |
| CC1CC2(CC[C@@H]1O)OCCO2 (stereo not given in full) |  | > 100 µM | > 100 µM | > 100 µM | > 100 µM |  |
| CCSc1nc(COC(=O)NC)c(COC(=O)NC)n1C | > 76.2 µM |  | > 54.8 µM | > 85.9 µM | > 100 µM | TGI (BT-549 breast): > 100 µM; TGI (DU-145 prostate): > 23.2 µM; TGI (T-47D breast): > 100 µM; TGI (NCI/ADR-RES ovarian): > 100 µM; TGI (HS 578T breast): > 100 µM |
| CC(CCCOC(c1ccccc1)(c1ccccc1)c1ccccc1)OC(=O)Nc1cc([N+](=O)[O-])cc([N+](=O)[O-])c1 (stereo not given) | > 100 µM |  | > 100 µM |  | > 100 µM |  |
| COC1CC(n2cnc3c(N)ncnc32)OC1CO (stereo not given) | > 100 µM | > 100 µM | > 100 µM |  | > 100 µM |  |
| CCC1CN2CCc3cc(OC)c(OC)cc3C2CC1CC1c2cc(OC)c(OC)cc2CCN1C(=O)CNC(=O)OC(C)(C)C (stereo not given) | 20 µM | 28.9 µM | 36.2 µM | 51 µM | 36.9 µM |  |
| Clc1ccc(CN2COc3c(cc(Cl)c4cccnc34)C2)cc1 | 3.73 µM | 7.24 µM | 2.71 µM | 17.9 µM | 13.6 µM |  |
| CC(=O)c1cccc(NCn2nnc3ccccc32)c1 | > 100 µM | > 100 µM | > 100 µM |  | > 100 µM |  |
| CCO[C@@H]1C2C=CC(C2)[C@H]1[N+](=O)[O-] (stereo not given in full) | > 100 µM | > 100 µM | > 100 µM | > 100 µM | > 100 µM |  |
| Cc1cccc(C)c1NC(=O)CCCC(=O)C1CCC/C1=N\NC(=O)C(=O)NN (stereo not given) | > 100 µM | > 100 µM | > 100 µM | > 100 µM | > 100 µM |  |
| COC(=O)C(=O)C(C(=O)C=C(C)C)C(=O)C(=O)Nc1cccc(C(C)=O)c1 (stereo not given) | > 100 µM | > 100 µM | > 100 µM | > 100 µM | > 100 µM |  |
| COc1ccc(COCC(Cn2ccnc2)OCc2ccc(C(=O)O)cc2)cc1 (stereo not given) | > 100 µM | > 100 µM | > 100 µM | > 100 µM | > 100 µM |  |
| CC(C)[C@@H](COC(C)(C)C)N=CN1CCc2c([nH]c3ccccc23)C1 | > 100 µM | > 100 µM | > 100 µM | > 100 µM | > 100 µM |  |
